According to patent US20090053187A1 (priority 2005, published 2009):
Values joined by “and” are separate entries in the source; they are usually repeats but may differ in a detail not shown here. Identical values can stand only once.

Tests used:
[1] = test system: STI-PRTS; assay type: cell-based
[2] = test system: STI-1; assay type: cell-based
[3] = test system: Bacillus anthracis 71/12 (Tsenkovsky vaccine II); parameters: species or system outbred white mice; conditions: mouse, in vivo
[4] = test system: Bacillus anthracis STI-1; parameters: species or system Mice of CBA line; conditions: mouse, in vivo

## tetracycline [Tc]
[1]
  Zone of culture growth delay at using discs with antibiotics: 0 mm
[2]
  Zone of culture growth delay at using discs with antibiotics: 7 mm

## lyzozyme
[3]
  Death of animal on day 2: 1
  Death of animal on day 3: 3
  Death of animal on day 6: 0
  Death of animal on day 7: 0
  Number of perished/Number of infected: 4/5
  mortality: 80%

## ampicillin
[1]
  Zone of culture growth delay at using discs with antibiotics: 0 mm
[2]
  Zone of culture growth delay at using discs with antibiotics: 4 mm

## C[C@H]1c2cccc(O)c2C(=O)C2=C(O)[C@]3(O)C(=O)C(C(N)=O)=C(O)[C@@H](N(C)C)[C@@H]3[C@@H](O)[C@@H]21 [doxycycline]
[4]
  Death of animals among those taken for the experiment: 3/3 and 1/3 and 0/3
